Here are results for ten compounds from patent US7087721B2, “Compositions, kits and treating methods for alteration cell-cell adhesion, transport, or permeation properties of tissues” (priority 2003, dated 2006).

Entries after “also recorded” stand apart in the source; their conditions may differ.

Common to all, as to format: cell-based, human
Assay [1] deals with TMG-expressed A2058 cells. Briefly: Carbohydrate specificity for TM-mediated cell adhesion, TMG cells. The following applies: 37° C. overnight, light microscopy. How it is done: A variety of simple carbohydrate (D-mannose, D-galactose, D-lactose, D-glucose, D-xylose), heparin, LMW heparin, chondroitin sulfate A, chondroitin sulfate B, and chondroitin sulfate C were tested to determine their ability to block cell-cell adhesion of the TMG cells. In these experiments, the carbohydrate to be tested was added to the cell monolayer to compare its ability to compete with the TMG. The plates were then incubated at 37° C. for overnight and examined by light microscopy (Leica Model DM IL).
FIG. 8. Effect of different carbohydrates on the cell adhesion of TMG cells. TMG-expressed A2058 cells were challenged with 20 mg/ml of monosaccharides (including D-glucose, D-galactose, D-lactose, D-xylose, D-mannose), 20 mg/ml of chondroitin sulfate A, B, C, or 15 mg/ml of heparin, LMW heparin. Following incubation at 37° C. overnight, images were obtained. Each image is representative of the observations from three separate experiments.

The subject of another assay is A2058TMG cells. Briefly: Calcium-switch method, A2058TMG cells. Particulars: 4 mM EGTA, 40 min. The protocol: (§1) Cells were grown overnight on glass coverslips at a constant density (5×10^4 cells/well) in 24 well culture plates. The cells were serum-starved for 8 h and Ca^2+ was removed by incubation with DMEM medium containing 4 mM ethyleneglycol-bis-(Amino-Ethyl-Ether) N,N,N′,N′-tetraacetic acid (EGTA) and 1 mM MgCl2 at 37° C. After 1 h, the DMEM medium containing 1.8 mM Ca^2+ was added to replace the Ca^2+-free medium. In control experiments, cells received fresh media in the absence of EGTA. In selected experiments, 10 μg/ml of anti-TM lectin-like antibody, 10 μg/ml of isotype-specific control antibody or anti-E-cadherin antibody (20 μg/ml) was added to the Ca^2+-containing medium.
(§2) FIG. 6. TM participates in Ca^2+-dependent cell-cell adhesion. A2058TMG (A–E) and HaCaT cells (F–J) were left untreated (A, F) or treated with 4 mM EGTA for 40 min (B–E, G–J). The EGTA containing medium was then replaced with Ca^2+-containing medium in the presence of 10 μg/ml control IgG (C, H) for 1 h. After treatment with EGTA, cells were incubated for 1 h in medium containing 1.8 mM Ca^2+ and 10 ? g/ml function-blocking anti-lectin-like antibody (D, I), or anti-E-cadherin antibody (E, J). Green fluorescence shown in panels A to E is the GFP-tagged TM proteins, whereas panels F to J indicate the TM distribution by anti-EGF-like domain antibody detected with tetramethylrhodamine-conjugated anti-mouse antibody. […]

Another assay relates to HaCaT cells. Briefly: Calcium-switch method, HaCaT cells. The following applies: 4 mM EGTA, 40 min. The protocol: as §1, §2

Turning to “dermatan sulfate [chondroitin sulfate B]”, the “ability to disperse the close clustering morphology of TMG culture cells” value in assay [1] (20 mg/ml) is “no effect”.
As for `OC[C@H]1O[C@@H](O[C@H]2[C@H](O)[C@@H](O)C(O)O[C@@H]2CO)[C@H](O)[C@@H](O)[C@H]1O` (stereo partly drawn) [D-lactose], the “ability to disperse the close clustering morphology of TMG culture cells” value in assay [1] (20 mg/ml) was “only mannose was found to be effective”.
Regarding `O=C[C@H](O)[C@@H](O)[C@@H](O)[C@H](O)CO` [D-galactose], in assay [1] (20 mg/ml), the “ability to disperse the close clustering morphology of TMG culture cells” value is reported as “only mannose was found to be effective”.
Turning to `O=C(O)CN(CCOCCOCCN(CC(=O)O)CC(=O)O)CC(=O)O` [EGTA, ethyleneglycol-bis-(Amino-Ethyl-Ether) N,N,N′,N′-tetraacetic acid], the “cell-to-cell contacts in EGTA-containing medium” value in the assay with A2058TMG cells and in the assay on HaCaT cells was “disrupted” in each case.
In the case of `O=C[C@@H](O)[C@@H](O)[C@H](O)[C@H](O)CO` [D-mannose], in assay [1] (20 mg/ml), the “ability to disperse the close clustering morphology of TMG culture cells” value is “effective in inducing of cell dispersion; also recorded: highest dispersing effect”.
The same measure, in the same setting: the result for “chondroitin 6-sulfate [chondroitin sulfate C]” reads “could induce cell dispersion”.
In the case of `O=C[C@H](O)[C@@H](O)[C@H](O)CO` [D-xylose], the “ability to disperse the close clustering morphology of TMG culture cells” value in assay [1] (20 mg/ml) is recorded as “only mannose was found to be effective”.
As to `O=C[C@H](O)[C@@H](O)[C@H](O)[C@H](O)CO` [D-glucose], the “ability to disperse the close clustering morphology of TMG culture cells” value in assay [1] (20 mg/ml) was “only mannose was found to be effective”.
With “chondroitin 4-sulfate [chondroitin sulfate A]”, the “ability to disperse the close clustering morphology of TMG culture cells” value in assay [1] (20 mg/ml) is given as “could induce cell dispersion”.
Regarding heparin, the “ability to disperse the close clustering morphology of TMG culture cells” value in assay [1] (15 mg/ml) is listed as “minor inhibitory effect on the cell adhesion”.
